In patent publication US20210405025A1, “IDENTIFYING COMPOUNDS FOR TREATING CANCER AND USE THEREOF” (THE UAB RESEARCH FOUNDATION, priority 2018, published 2021):
Structures can show the parent of a compound that is named as a salt.

test system: relapsed AML cells; experiment: Drug sensitivity assay, 1,536-well, 3-day culture with individual approved drugs at 10 μM, viability by alamarBlue; assay type: cell-based, human; conditions: not given
Procedure: Drug sensitivity assays were performed using a 1,536-well platform where all cells and reagents were deposited in wells using an acoustic liquid handling unit that is highly accurate for dispensing of nanoliter volumes of liquid. […] After dispensing the cells into the wells, an independent drug at a known concentration is added to each well and incubated with the cells. After three days, the percentage of live cells in each well is determined to assess the killing efficiency of each compound. […] Cell viability assays are known to those of skill in the art. See, for example, Pemovska et al., Individualized systems medicine strategy to tailor treatments for patients with chemorefractory acute myeloid leukemia. Cancer Discovery 3:1416-1429, 2013; Pabst et al., Identification of small molecules that support human leukemia stem cell activity ex vivo. Nature Methods 11:436-442, 2014; Baccelli et al., A novel approach for the identification of efficient combination therapies in primary human acute myeloid leukemia specimens. Blood Cancer Journal 7:e529, 2017. In studies described herein, the 1,536-well format was utilized, which allowed for use of four times fewer cells as well as less drug and media components due to the small assay volume of 5 microliters. […] Other compounds like CellTiter-Glo (Promega, Madison, Wis.) are equally appropriate reagents for determining cell viability.
Conditions for the drug screening assays were as described in Pabst et al., Identification of small molecules that support human leukemia stem cell activity ex vivo, Nature Methods 11:436-442, 2014). Using this protocol, cells were cultured in Iscove's Modified Dulbecco's Medium (IMDM), 15% BIT (bovine serum albumin, insulin, transferrin; Stem Cell Technologies 09500 (Vancouver, Calif.)), 100 ng/ml SCF (Shenandoah 100-04 (Warwick, Pa.)), 50 ng/ml FLT3L (Shenandoah 100-21), 20 ng/ml IL-3 (Shenandoah 100-80), 20 ng/ml G-CSF (Shenandoah 100-72), 10^-4 M β-mercaptoethanol, gentamicin (50 μg/ml) and ciprofloxacin (10 μg/ml).
Cells were removed from liquid nitrogen and placed in a 37° C. bath, just until thawed. For 1,536-well screens utilizing 6,000 wells about 100 million cells were thawed. The volume was doubled with pre-warmed culture media and placed on ice for about one to two minutes. The cells were brought to a final volume of about 8 to 10 mL before spinning down at 1,100 rpm for 5 min at 10° C. The pelleted cells were resuspended in 10 mL of culture media and plated in a tissue-culture treated T75 flask at a density of 1 to 2 million cells/ml. The cells were cultured overnight prior to fluorescence-activated cell sorting of viable cells on the following day.
After cells were cultured overnight, a cell scraper was used to remove any cells that adhered to the plastic. The cells were gently pipetted up and down to break up aggregates. Then, the entire volume was transferred to a 50 mL conical tube through a 70 micron cell strainer to remove cell clumps. The T75 flask was rinsed and scraped with about 10 mL HBSS and transferred to the same 50 mL conical tube through the strainer. The harvested cells were spun down at 1,100 rpm for 5 min at 10° C. The cells were then resuspendd in about 300-500 microliters FACS buffer (HBSS+2% FBS+1× propidium iodide) and transferred to a FACS tube. The tube was placed on ice and viable cells that are forward- and side-scatter gated on viable myeloid blasts were sorted by FACS (the scatter gate should exclude small lymphocytes, large myeloid cells, and debris). After sorting the required number of viable cells, the cells were spun down at 1,100 rpm for 5 min at 10° C. and subsequently resuspended at 4,000-4,500 cells per 5 microliter volume of complete culture media with growth factors and penicillin/streptomycin.

SMILES | #Cases >70% cell death
O=C(O)C1[O][Sb]2[O]C(=O)C([O]2)C(C(=O)O)[O][Sb]2[O]C(=O)C1[O]2 (centres unmarked) [ANTIMONY POTASSIUM TARTRATE TRIHYDRATE] | 3

same assay, conditions: number of relapsed AML cases out of 18 tested with >70% cell death; 10 μM, 3-day culture

SMILES | #Cases >70% cell death
CC(=O)OCC(=O)[C@@]12OC3(CCCC3)O[C@@H]1C[C@H]1[C@@H]3CCC4=CC(=O)C=C[C@]4(C)[C@@]3(F)[C@@H](O)C[C@@]12C [AMCINONIDE] | 1
C[C@@H](NCCCc1cccc(C(F)(F)F)c1)c1cccc2ccccc12 [AMG-073 HCL] | 1
Nc1c2ccccc2nc2ccccc12 [AMINACRINE] | 18
CCOC(=O)C1=C(COCCN)NC(C)=C(C(=O)OC)C1c1ccccc1Cl (centres unmarked) [AMLODIPINE] | 14
CCC(C)(C)c1ccc(CC(C)CN2C[C@@H](C)O[C@@H](C)C2)cc1 (some centres unmarked) [AMOROLFINE] | 9
COc1cc(NS(C)(=O)=O)ccc1Nc1c2ccccc2nc2ccccc12 [AMSACRINE] | 4
CCC1=C[C@@H]2CN(CCc3c([nH]c4ccccc34)[C@@](C(=O)OC)(c3cc4c(cc3OC)N(C)[C@H]3[C@@](O)(C(=O)OC)[C@H](OC(C)=O)[C@]5(CC)C=CCN6CC[C@]43[C@@H]65)C2)C1 [ANHYDROVINBLASTINE] | 5
O=C(/C=C/c1cccnc1)NCCCCC1CCN(C(=O)c2ccccc2)CC1 [APO-866] | 17
CN1CCc2cccc3c2[C@H]1Cc1ccc(O)c(O)c1-3 [APOMORPHINE] | 5
C[C@H]1[C@H](OC(=O)CCC(=O)O)O[C@@H]2O[C@@]3(C)CC[C@H]4[C@H](C)CC[C@@H]1[C@@]24OO3 [ARTESUNATE] | 5
COc1ccc(CCN2CCC(Nc3nc4ccccc4n3Cc3ccc(F)cc3)CC2)cc1 [ASTEMIZOLE] | 7
O=C(NC1CCNCC1)c1[nH]ncc1NC(=O)c1c(Cl)cccc1Cl [AT-7519] | 18
CC(C)NCC(O)COc1ccc(CC(N)=O)cc1 (centres unmarked) [ATENOLOL] | 1
CC(=O)OC[C@H]1O[C@@H]([S-])[C@H](OC(C)=O)[C@@H](OC(C)=O)[C@@H]1OC(C)=O.CCP(CC)CC.[Au+] [AURANOFIN] | 17
CC[C@H](CC#N)OC(=O)N[C@@H](C)c1cccc(NC(=O)Nc2ccc(-c3cnco3)c(OC)c2)c1 [AVN944] | 10
CNC(=O)c1ccccc1Sc1ccc2c(/C=C/c3ccccn3)n[nH]c2c1 [AXITINIB] | 9
Nc1ncn([C@@H]2O[C@H](CO)[C@@H](O)[C@H]2O)c(=O)n1 [AZACYTIDINE] | 8
O=C(CCCN1CCN(c2ccccn2)CC1)c1ccc(F)cc1 [AZAPERONE] | 1
Cn1cnc([N+](=O)[O-])c1Sc1ncnc2nc[nH]c12 [AZATHIOPRINE] | 10
Cc1cc(C(=O)NOCCO)c(Nc2ccc(I)cc2F)n(C)c1=O [AZD8330] | 2
Cc1cc(Nc2nc(N[C@@H](C)c3ncc(F)cn3)ncc2Cl)[nH]n1 [AZD-1480] | 12
Cc1ncc(-c2ccnc(Nc3ccc(S(C)(=O)=O)cc3)n2)n1C(C)C [AZD-5438] | 17
Cc1cc([C@@H](C)Nc2ccccc2C(=O)O)c2nc(N3CCOCC3)cc(=O)n2c1 [AZD-6482] | 1
NC(=O)Nc1cc(-c2cccc(F)c2)sc1C(=O)N[C@H]1CCCNC1 [AZD-7762] | 14
CN1CCCC(n2nc(Cc3ccc(Cl)cc3)c3ccccc3c2=O)CC1 (centres unmarked) [AZELASTINE] | 2

SMILES | #Cases >70% cell death
CC1=C(C(=O)OC(C)C)C(c2cccc([N+](=O)[O-])c2)C(C(=O)OC2CN(C(c3ccccc3)c3ccccc3)C2)=C(N)N1 (centres unmarked) [AZELNIDIPINE] | 5
CC[C@H]1OC(=O)[C@H](C)[C@@H](O[C@H]2C[C@@](C)(OC)[C@@H](O)[C@H](C)O2)[C@H](C)[C@@H](O[C@@H]2O[C@H](C)C[C@H](N(C)C)[C@H]2O)[C@](C)(O)C[C@@H](C)CN(C)[C@H](C)[C@@H](O)[C@]1(C)O [AZITHROMYCIN] | 1
CC1(C)CC[C@]2(C(=O)O)CC[C@]3(C)[C@H](C(=O)C=C4[C@@]5(C)C=C(C#N)C(=O)C(C)(C)[C@@H]5CC[C@]43C)[C@@H]2C1 [BARDOXOLONE] | 12
Cc1c(-c2ccc(O)cc2)n(Cc2ccc(OCCN3CCCCCC3)cc2)c2ccc(O)cc12 [BAZEDOXIFENE HCL] | 8
CCN(CC)CCN1C(=O)c2c(c3c4cccc(Cl)c4n([C@@H]4O[C@H](CO)[C@@H](OC)[C@H](O)[C@H]4O)c3c3[nH]c4c(Cl)cccc4c23)C1=O [BECATECARIN] | 18
CCC(=O)OCC(=O)[C@@]1(OC(=O)CC)[C@@H](C)C[C@H]2[C@@H]3CCC4=CC(=O)C=C[C@]4(C)[C@@]3(Cl)[C@@H](O)C[C@@]21C [BECLOMETHASONE DIPROPIONATE] | 1
O=C(/C=C/c1cccc(S(=O)(=O)Nc2ccccc2)c1)NO [BELINOSTAT] | 1
CCCCOc1cc(C(=O)OCCN(CC)CC)ccc1N [BENOXINATE] | 5
CC(C)(C)CC(C)(C)c1ccc(OCCOCC[N+](C)(C)Cc2ccccc2)cc1 [BENZETHONIUM CHLORIDE] | 16
CN(C)CCCOc1nn(Cc2ccccc2)c2ccccc12 [BENZYDAMINE] | 4
COc1ccc2cc3[n+](cc2c1OC)CCc1cc2c(cc1-3)OCO2 [BERBERINE CHLORIDE] | 1
C[C@H]1C[C@H]2[C@@H]3CCC4=CC(=O)C=C[C@]4(C)[C@@]3(F)[C@@H](O)C[C@]2(C)[C@@]1(O)C(=O)CO [BETAMETHASONE] | 1
c1ccc(-c2ccc(C(c3ccccc3)n3ccnc3)cc2)cc1 (centres unmarked) [BIFONAZOLE] | 1
O=C1CC2(CCCC2)CC(=O)N1CCNCC1COc2ccccc2O1 (centres unmarked) [BINOSPIRONE MESYLATE] | 1
CC(C)(C)CC(C)(C)c1cc(Cc2cc(C(C)(C)CC(C)(C)C)cc(-n3nc4ccccc4n3)c2O)c(O)c(-n2nc3ccccc3n2)c1 [BISOCTRIZOLE] | 1
CC(C)(C)c1cnc(CSc2cnc(NC(=O)C3CCNCC3)s2)o1 [BMS-387032] | 18
C[C@@]1(C(=O)Nc2ccc(F)nc2)CCCN1c1nc(Nc2cc(C3CC3)n[nH]2)c2cccn2n1 [BMS-754807] | 1
CC(C)C[C@H](NC(=O)[C@H](Cc1ccccc1)NC(=O)c1cnccn1)B(O)O [BORTEZOMIB] | 18
COc1cc(Nc2c(C#N)cnc3cc(OCCCN4CCN(C)CC4)c(OC)cc23)c(Cl)cc1Cl [BOSUTINIB] | 12
CN(Cc1cc(Br)cc(Br)c1N)C1CCCCC1 [BROMHEXINE] | 1
Cc1ccc2c(Br)cc(Br)c(OC(=O)c3ccccc3)c2n1 [BROXALDINE] | 2
CCCC1O[C@@H]2C[C@H]3[C@@H]4CCC5=CC(=O)C=C[C@]5(C)[C@H]4[C@@H](O)C[C@]3(C)[C@]2(C(=O)CO)O1 (some centres unmarked) [BUDESONIDE] | 2
CCCCOc1ccc(CC(=O)NO)cc1 [BUFEXAMAC] | 9
CCCCN(CCCC)CCCOC(=O)c1ccc(N)cc1 [BUTACAINE] | 1
